These results are taken from patent US20140079740A1 (priority 2012, published 2014).

Read-outs that look alike come from different tables or passages of the source.

In one data set the test system is anesthesia and analgesia. As to conditions: cited from earlier work.
The conditions of data set [1]: cited from earlier work; for T1/2: biological half-life of metabolite.
In a further data set the test system is neuropathic pain. As to conditions: cited from earlier work.
Data set [2] can be described thus: Dose linearity test for oral transmucosal S-ketamine formulations.

Regarding `CNC1(c2ccccc2Cl)CCCCC1=O` (racemic) [Ketamine, dl-2-(o-chloro-phenyl)-2(methylamino)cyclohexanone], the duration of anesthesia in the data set with anesthesia and analgesia (IM administration) was 12 to 25 min. For the same compound, the time to anesthesia in the data set on anesthesia and analgesia (IM route) was 3 to 4 min. In the data set with anesthesia and analgesia (administered intravenously), the time to anesthesia was not above 0.5 min and the “time to sensation of dissociation” value was 15 s. In addition, in the data set on anesthesia and analgesia (following oral dose), the “ketamine concentration at effective analgesia” value is 40 ng/mL. Besides, in the data set on anesthesia and analgesia (iv bolus, dosage 2 mg/kg), the Time to onset was 30 to 60 s and the duration of effect was 10 to 15 min. Moreover, in the data set with anesthesia and analgesia (sum of S- and R-isomer, intramuscular and intravenous administration), the “plasma levels at which analgesic effects were observed” value was 100 to 200 ng/mL. Besides, the T½ beta in data set [1] (biological half-life) was 4.98 (1.56) h. Also, in data set [1] (in vivo), the Clearance was 12 to 17 mL/kg/min, the Metabolites excreted fecally is on record as 5%, the Metabolites excreted renally is 90% and the “Urinary excretion of unchanged drug” value is 3-4%. Moreover, in data set [1] (in vivo), the “administered dose excreted unchanged in urine” value is on record as 4%, the alpha phase half-life is 10 to 15 min, the “apparent volume of distribution” value was 3.3 L/kg and the beta phase half-life is 2 to 3 h. In data set [1] (in vivo), the clearance rate is 1.3 L/min, the distribution half-life is 7 to 11 min, the “duration of alpha phase of distribution” value is on record as “about 45 minutes” and the elimination half-life was 2 to 3 h. In addition, the elimination halftime result in data set [1] (in vivo) is on record as “about 2.5 hours”. Besides, in data set [1] (intramuscular dose), the Bioavailability was 93%. Moreover, the “time of peak plasma concentrations” value in data set [1] (intramuscular injection) is 5 to 10 min. The Bioavailability in data set [1] (intranasal dose) is listed as 25-50%. The “time of peak plasma concentrations” value in data set [1] (intravenous administration) is not above 1 min. Moreover, the “time of peak plasma concentrations” value in data set [1] (oral administration) is 30 min. In addition, the Bioavailability in data set [1] (oral dose) is 20±7%. In addition, the Bioavailability entry in data set [1] (orally administered, extensive first-pass metabolism) is listed as “approximately 16%”. Further, in data set [1] (rectal, in children), the “time of peak absorption” value was 45 min. Further, the “oral bioavailability (AUC) relative to intravenous injection” value in data set [1] (single oral dose of 0.5 mg/kg) is reported as “about 20%”.

With `NC1(c2ccccc2Cl)CCC=CC1=O` (stereo not drawn) [Dehydronorketamine], the T1/2 in data set [1] is reported as 6.91 (1.71) h.

For `NC1(c2ccccc2Cl)CCCCC1=O` (stereo not drawn) [Norketamine], in data set [1] (after oral administration of ketamine), the “peak plasma concentrations of norketamine” value is 200 ng/mL. The T1/2 in data set [1] is on record as 5.32 (1.70) h.

For the compound `CN[C@]1(c2ccccc2Cl)CCCCC1=O` [S-Ketamine], the “time to maximal pain reduction” value in the data set with neuropathic pain (after nasal application) is 60 min. For the same compound, in the data set with neuropathic pain (between 30 and 180 min after intranasal administration), the “plasma concentrations of (S)-norketamine” value was more than 10 ng/mL. Moreover, in the data set on neuropathic pain (intranasal), the “time to (S)-ketamine plasma-peak” value is on record as not above 15 min and the “time to decline of plasma level below 10 ng/ml” value is reported as not above 60 min. Moreover, the “duration of reduction of ongoing neuropathic pain” value with neuropathic pain (low-dose intranasal administration) is 2 to 3 h. For the same compound, the “therapeutic index relative to R-Ketamine” value in the data set with anesthesia and analgesia (in vivo) is reported as 2.5 times. The “range of dose linearity” value in data set [2] lay in the range of 10 to 300 mg.

For `N[C@]1(c2ccccc2Cl)CCCCC1=O` [S-norketamine], the “analgesic and anaesthetic effect relative to S-ketamine” value in the data set on anesthesia and analgesia (in vivo) is “five times weaker”.
